Results reported in patent publication EP1555271A1, “Peptides useful for diagnosis and therapy of TRP-2+ and/or TRP-1+ tumors” (Deutsches Krebsforschungszentrum Stiftung des öffentlichen …, priority 2004, dated 2005).
Ends that are not written are not given here.

Biological target: HLA-DRB1*0301 (Homo sapiens, UniProt P01903+P01911, A100K/A102G/A103R/A169T/F55Y/I96L/K41T/L162R/M171V/P40S/Q125H/Q178H/Q39Y/R42S/S66N/T106N/T262R/W38E/Y61H)
Test: HLA-DR competitive binding assay on T2.DR3 cells (biotinylated TT829-843 reporter peptide, Europium sandwich immunoassay)
Settings: dose necessary to reduce TT reporter peptide binding to 50%, 10 µM TT829-843 reporter, 180 min

- IC50: 7.5 µM
Sequence: HLLCLERDLQRLIGN [TRP-2223-237, HLLCLERDLQRLIGN]
